Assay: Allosteric enhancer activity at human adenosine A1 receptor expressed in CHO cell membranes assessed as [3H]NECA affinity constant at 1 uM (Kd = 0.87 +/- 0.04 nM)

`CC(C)(C)Cc1c(C#Cc2ccccc2)sc(N)c1C(=O)c1ccc(Cl)cc1` showed a Kd of 0.46 nM.

Reference: BindingDB's records for doi:10.1021/jm5008853 (University of Ferrara, 2014)
